Legend:
[1] = tested on: Balb/c mice; test: Body weight during 21-day acute toxicity study; assay type: in vivo; details: 50 mg/kg BW sc 3×/week for 3 weeks, n=6
Procedure: (§1) This study used 5- to 7-week-old male and female Balb/c (Jackson Laboratories) mice. The mice were housed in standard mouse shoe-box cages and maintained in a 12-hr light/12-hr dark cycle, with 50% humidity and 20 ± 3 °C. The mice had free access to a standard pellet diet (Certified PicoLab® Rodent Diet 20, Lab Diet) and water ad libitum. The study was conducted in accordance with the guidelines of the Nova Southeastern University (NSU) Institutional Animal Care and Use Committee (NSU IACUC protocol 2019.12.DM4).
The animals were divided into four groups with each group containing six mice (three male and three female). Group 1: non-treated control mice; Group 2: animals were treated with a vehicle control (10%/90% DMSO/sterile water, USP sterile injectable grade) for 21 days; Group 3: animals were treated with 2155-14 (50 mg/kg body weight) for 21 days; and Group 4: animals were treated with 2155-18 (50 mg/kg body weight) for 21 days three times/week. Compounds (2155-14 and 2155-18) were freshly prepared in 10% DMSO/H2O (both USP injectable grade) for each treatment day. […]
(§2) Statistical significance was set at p < 0.05. All data were analyzed using one-way ANOVA to compare means, and significant differences were further analyzed by Tukey’s multiple comparisons using Prism (version 8.0, GraphPad Inc., San Diego, CA, USA).

[2] = tested on: primary melanocytes; details: in vitro; cited from earlier work
[3] = tested on: Balb/c mice; test: Overall acute toxicity after sc administration; assay type: in vivo; details: 50 mg/kg sc, 21 days
Procedure: as §1
The animals were divided into four groups with each group containing six mice (three male and three female). […]
All mice were euthanized after 21 days by CO2 overdose. […] Blood smears were prepared from whole blood and analyzed for the morphological changes of blood cells under the microscope.
(§3) The heart, lungs, stomach, intestines, pancreas, spleen, kidney with adrenal, liver, and brain were collected and placed in 10% neutral buffered formalin for histopathology. […] Tissues were evaluated for the presence of inflammation, degeneration, signs of toxicity, and any other abnormalities. […]

[4] = tested on: Balb/c mice; test: Histopathology of organs (H&E) after 21-day acute toxicity study; assay type: in vivo; details: 50 mg/kg sc, 21 days
Procedure: (§4) The animals were divided into four groups with each group containing six mice (three male and three female). Group 1: non-treated control mice; Group 2: animals were treated with a vehicle control (10%/90% DMSO/sterile water, USP sterile injectable grade) for 21 days; Group 3: animals were treated with 2155-14 (50 mg/kg body weight) for 21 days; and Group 4: animals were treated with 2155-18 (50 mg/kg body weight) for 21 days three times/week. Compounds (2155-14 and 2155-18) were freshly prepared in 10% DMSO/H2O (both USP injectable grade) for each treatment day. Both 2155-14 and 2155-18 were weighed into autoclaved 1.5 mL Eppendorf vials using analytical scales. USP grade DMSO was added to each vial under aseptic conditions and vortexed. USP grade injectable sterile H2O was then added to each vial and again vortexed. Next, 1 mL insulin syringes with a 26-gauge needle were filled with 0.2 mL of the compound and delivered to the vivarium in the closed carrier for animal treatment. For the vehicle control group, syringes were filled with 0.2 mL of 10% DMSO/H2O (USP injectable grade).
as §3

[5] = tested on: Balb/c mice; test: Complete blood count (CBC) after 21-day acute toxicity study; assay type: in vivo; details: 50 mg/kg bw sc 3×/week for 21 days; for Eosinohils / Monocytes / WBC / RBC / Segmented Neutrophils / Hgb / MCH / MCHC / HCT / Lymphocytes / MCV / Platelets: mean ± SD; for Eosinohils: n=6, reference range 0.11–4.91; for Monocytes: n=6, reference range 3.29–12.48; for WBC: n=6, reference range 3.48–14.03; for RBC: n=6, reference range 6.93–12.24; for Segmented Neutrophils: n=6, reference range 9.86–39.11; for Hgb: n=6, reference range 12.6–20.5; for MCH: n=6, reference range 13.2–17.6; for MCHC: n=6, reference range 23.3–32.7; for HCT: n=6, reference range 42.1–68.3; for Lymphocytes: n=6, reference range 48.81–83.19; for MCV: n=6, reference range 50.7–64.4; for Platelets: n=6, reference range 420–1698; for Banded Neutrophils: n=6, reference range 0–1; for Basophils: n=6, reference range 0–1.84
Procedure: as §1, §4
(§5) All mice were euthanized after 21 days by CO2 overdose. Whole blood samples were collected via cardiocentesis with a 25-gauge needle immediately after euthanasia. Blood samples were collected in MiniCollect® Serum and Plasma Tubes containing either K3EDTA or lithium heparin for CBC and blood chemistry, respectively. Blood smears were prepared from whole blood and analyzed for the morphological changes of blood cells under the microscope.
(§6) The heart, lungs, stomach, intestines, pancreas, spleen, kidney with adrenal, liver, and brain were collected and placed in 10% neutral buffered formalin for histopathology. The tissues were processed via standard tissue processing to produce H&E slides. All H&E slides were reviewed blind to the treatment group. Tissues were evaluated for the presence of inflammation, degeneration, signs of toxicity, and any other abnormalities. CBC, blood chemistry, and histopathology analyses were performed at the Division of Comparative Pathology, University of Miami.
as §2

[6] = tested on: Balb/c mice; test: Blood chemistry after 21-day acute toxicity study; assay type: in vivo; details: 50 mg/kg bw sc 3×/week for 21 days, mean ± SD; for Creatinine: n=6, reference range 0.2–0.4; for Total protein: n=6, reference range 4.6–8.9; for BUN: n=6, reference range 7.0–26; for Phosphorus: n=6, reference range 8.2–14.7; for Calcium: n=6, reference range 9.4–12.5; for Glucose: n=6, reference range 129–329
Procedure: as §1, §4, §5, §6, §2

[7] = tested on: melanoma cells; details: in vitro; read-out: IC50, inhibition of viability of melanoma cells; cited from earlier work
[8] = tested on: various cell types (liver, lung, breast, brain, skin, ovary, primary melanocytes, primary keratinocytes); details: in vitro, tested up to 100 µM; cited from earlier work

SMILES: O=C1NC[C@H](Cc2ccccc2)N(C[C@@H]2CCCN2C[C@H](Cc2ccccc2)N2C[C@H](Cc3ccc(O)cc3)N(CCC34CC5CC(CC(C5)C3)C4)C(=O)C2=O)C1=O [Compound 2155-18]
- Change in body weight versus control groups [1]: No significant changes in body weight
- Effect on viability of primary melanocytes [2]: do not have an effect on the viability of primary melanocytes
- Acute toxicity after sc administration [3]: lack of acute toxicity
- Histopathological examination of hearts and livers [4]: no adverse effects
- Eosinohils [5]: 2 ± 1%
- Monocytes [5]: 6.7 ± 2.3%
- WBC [5]: 4.2 ± 2.7 K/µL
- RBC [5]: 7.9 ± 1.4 M/µL
- Segmented Neutrophils [5]: 24.7 ± 10.9%
- Hgb [5]: * 11.9 ± 1.6 g/dL
- MCH [5]: 14.7 ± 0.57 pg
- MCHC [5]: 25.3 ± 0.58 g/dL
- HCT [5]: 46.9 ± 6.4%
- Lymphocytes [5]: 70.7 ± 11.3%
- MCV [5]: 59.3 ± 2.1 fL
- Platelets [5]: 741 ± 305 K/µL
- Banded Neutrophils [5]: 0%
- Basophils [5]: 0%
- Creatinine [6]: * 0.46 ± 0.11 mg/dL
- Total protein [6]: 6.7 ± 0.48 g/dL
- BUN [6]: 16.7 ± 1.6 mg/dL
- Phosphorus [6]: * 15.3 ± 0.25 mg/dL
- Calcium [6]: 8.7 ± 0.75 mg/dL
- Glucose [6]: 212 ± 50.5 mg/dL
- IC50 [7]: 0.5 to 10 µM
- TC50, toxicity against various cell types [8]: > 100 µM

SMILES: O=C1NC[C@H](Cc2ccccc2)N(C[C@@H]2CCCN2C[C@@H](CC2CCCCC2)N2C[C@H](Cc3ccc(O)cc3)N(CCc3ccccc3)C(=O)C2=O)C1=O [Compound 2155-14]
- Change in body weight versus control groups [1]: No significant changes in body weight
- Effect on viability of primary melanocytes [2]: do not have an effect on the viability of primary melanocytes
- Acute toxicity after sc administration [3]: lack of acute toxicity
- Histopathological examination of hearts and livers [4]: no adverse effects
- Eosinohils [5]: 0.5 ± 1.2%
- Monocytes [5]: 4.25 ± 4.27%
- WBC [5]: 5.1 ± 1.6 K/µL
- RBC [5]: 10.6 ± 2.1 M/µL
- Segmented Neutrophils [5]: 18.8 ± 8.0%
- Hgb [5]: 14.1 ± 1.6 g/dL
- MCH [5]: 14 ± 2.3 pg
- MCHC [5]: 23 ± 5.1 g/dL
- HCT [5]: 61.1%
- Lymphocytes [5]: 78.3 ± 7.5%
- MCV [5]: 61 ± 2.2 fL
- Platelets [5]: 542 ± 95 K/µL
- Banded Neutrophils [5]: 0%
- Basophils [5]: 0%
- Creatinine [6]: * 0.44 ± 0.19 mg/dL
- Total protein [6]: 7.1 ± 0.6 g/dL
- BUN [6]: 18.3 ± 2.5 mg/dL
- Phosphorus [6]: 13.6 ± 0.4 mg/dL
- Calcium [6]: 9.1 ± 0.85 mg/dL
- Glucose [6]: 181 ± 25.7 mg/dL
- IC50 [7]: 0.5 to 10 µM
- TC50, toxicity against various cell types [8]: > 100 µM
